Two molecules from patent publication US20230255943A1, “MMP-9 AND MMP-12 INHIBITION FOR TREATING SPINAL CORD INJURY OR RELATED INJURY TO NEUROLOGICAL TISSUE” (The University of Birmingham, priority 2020, published 2023) can be followed below.

One assay has as its system IL-1β, TNF-α and IL-6. The assay can be described thus: Proinflammatory pain markers after CC SCI in mice. The format is in vivo, mouse. To be noted: oral gavage immediately after injury. Here is the method:
CC SCI was administered at the T7-T8 vertebral level after exposure of T6-T9 by laminectomy. The aneurysm clip applicator was oriented in a bilateral direction and an aneurysm clip with a closing force of 24 g was applied extradurally for 60 s, as described previously (A. S. Rivlin, C. H. Tator, Effect of duration of acute spinal cord compression in a new acute cord injury model in the rat. Surg Neurol 10, 38-43 (1978):E. Esposito, I. Paterniti, E. Mazzon, T. Genovese, M. Galuppo, R. Meli, P. Bramanti, S. Cuzzocrea, MK801 attenuates secondary injury in a mouse experimental compression model of spinal cord trauma. BMC Neurosci 12, 31 (2011)).
The urinary bladders were manually emptied twice daily until bladder function was regained. Adult male C57BL6 mice (25-30 g) (Charles River, Margate, UK) were randomly allocated to either: (1), Sham (control; laminectomy but no CC SCI); (2), CC SCI+vehicle; (3), CC SCI+200 mg/kg AZD1236 (oral); (4), CC SCI+5 mg/kg AZD1236 (it). All experiments were performed with n=6 mice/group and repeated on 3 independent occasions (total=18 mice/group/test).
The lesion site+5 mm either side (DC and CC SCI, n=6 mice/rats/group, 2 independent repeats (total n=12 mice/rats/group)) was dissected and rapidly frozen in liquid N2 and stored at −80° C. until required. […] The levels of mRNA of MMP-9, MMP-12, IL-1β, TNF-α and IL-6 were determined using pre-validated mouse primer sequences from complimentary DNA prepared from extracted mRNA and qRT-PCR was performed using a LightCycler PCR machine (Roche, Burgess Hill, UK) (M. L. Read, S. Mir, R. Spice, R. J. Seabright, E. L. Suggate, Z. Ahmed, M. Berry, A. Logan, Profiling RNA interference (RNAi)-mediated toxicity in neural cultures for effective short interfering RNA design. J Gene Med 11, 523-534 (2009)). […] Fold changes were computed using the ΔΔCt method (M. L. Read, S. Mir, R. Spice, R. J. Seabright, E. L. Suggate, Z. Ahmed, M. Berry, A. Logan, Profiling RNA interference (RNAi)-mediated toxicity in neural cultures for effective short interfering RNA design. J Gene Med 11, 523-534 (2009).

The target in a further assay is T1, MMP-9 (Rattus norvegicus, UniProt P50282).
T1 construct: from tissue; host or cells: Sprague-Dawley rat spinal cord lesion site
Put plainly: MMP-9 activity after DC injury in rats. To be noted: oral. The format is in vivo. Here is the method:
The efficacy of oral AZD3342 in the DC injury model in adult Sprague-Dawley rat was also assessed. Animals were divided into 6 groups: (1), Sham (control); (2), DC crush injury+Vehicle; (3), DC crush injury+15 mg/kg AZD3342; (4), DC crush injury+75 mg/kg […]; (5), DC crush injury+375 mg/kg AZD3342; and (6), DC crush injury+Melatonin. Animals were dosed twice daily with oral AZD3342 or vehicle with the experimenters masked to the treatment conditions. These experiments were performed with n=6 rats/group and repeated on 2-3 independent occasions (total n=12-18 rats/group/test).
The lesion site+3 mm either side for mouse (DC and CC SCI) and lesion site+5 mm either side for rat was dissected (n=6 mice/rats/group, 2 independent repeats, total n=12 mice/rats/group) and rapidly frozen in liquid N2 and stored at −80° C. until required. The enzymatic activity of MMP-9 and MMP-12 was determined in 96-well plates using the SensoLyte 520 MMP-9 and MMP-12 fluorimetric assay kit, according to the manufacturer's instructions (AnaSpec, Fremont, Calif., USA). Fluorescence intensity was measured using a Synergy H1 microplate reader (BioTek UK, Swindon, UK) at Ex/Em=490/520 nm.

T1 sequence (P50282 108-708): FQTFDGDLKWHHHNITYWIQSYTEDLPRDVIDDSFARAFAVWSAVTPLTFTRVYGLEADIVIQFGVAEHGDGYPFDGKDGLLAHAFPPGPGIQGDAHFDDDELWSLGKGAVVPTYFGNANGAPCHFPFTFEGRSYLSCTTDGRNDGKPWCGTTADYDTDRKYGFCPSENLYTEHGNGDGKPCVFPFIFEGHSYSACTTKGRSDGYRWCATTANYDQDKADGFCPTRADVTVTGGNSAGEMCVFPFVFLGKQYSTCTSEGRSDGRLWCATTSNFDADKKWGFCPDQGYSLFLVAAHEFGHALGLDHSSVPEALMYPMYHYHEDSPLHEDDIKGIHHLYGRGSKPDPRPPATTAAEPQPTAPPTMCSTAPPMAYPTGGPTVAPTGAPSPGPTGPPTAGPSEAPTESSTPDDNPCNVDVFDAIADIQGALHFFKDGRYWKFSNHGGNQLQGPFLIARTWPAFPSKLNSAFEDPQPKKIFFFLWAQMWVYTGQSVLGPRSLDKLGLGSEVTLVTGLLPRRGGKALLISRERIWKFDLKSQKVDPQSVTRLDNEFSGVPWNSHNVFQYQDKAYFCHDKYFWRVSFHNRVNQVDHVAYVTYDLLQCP

With `C[C@]1(CS(=O)(=O)N2CC=C(C#Cc3cnc(C4CC4)nc3)CC2)NC(=O)NC1=O` [AZD1236], in the assay on IL-1β, TNF-α and IL-6, the “proinflammatory pain markers after CC injury, comparison with pain medications (FIG. 7)” value was “significantly attenuates”.

Turning to `C[C@]1(CS(=O)(=O)N2CCC(Oc3ccc(Cl)cn3)CC2)NC(=O)NC1=O` [AZD3342, (5S)-5-[4-(5-chloro-pyridin-2-yloxy)-piperidine-1-sulfonylmethyl]-5-methylimidazolidine-2,4-dione], on MMP-9, the MMP-9 activity result is recorded as “significantly suppresses”.
